Reference: PubChem BioAssay AID328 (DTP/NCI, 2004)
Where “and” joins values, the source holds several entries; their conditions need not be identical. Equal values may be shown once. Inconclusive results and toxic doses are left out.

System: BDF1 mice, P388 leukemia ip, median survival T/C
Assay: NCI In Vivo Anticancer Drug Screen. Data for tumor model P388 Leukemia (intraperitoneal) in B6D2F1 (BDF1) mice
Conditions: endpoint: median survival time, higher = longer survival
Summary of the method: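 Mice carrying the transplantable tumour receive compound or vehicle. Survival is followed in each arm, and the treated measure is divided by the vehicle measure.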

[1] = dose: 50.0 mg/kg/injection, schedule: Q01DX009 (ip), vehicle: saline with Tween-80
[2] = dose: 50.0 mg/kg/injection, schedule: Q01DX009 (ip), vehicle: Klucel (hydroxypropylcellulose) (HPC)
[3] = dose: 100.0 mg/kg/injection, schedule: Q01DX009 (ip), vehicle: Klucel (hydroxypropylcellulose) (HPC)
[4] = dose: 50.0 mg/kg/injection, schedule: Q04DX003 (ip), vehicle: saline with Tween-80
[5] = dose: 100.0 mg/kg/injection, schedule: Q04DX003 (ip), vehicle: saline with Tween-80
[6] = dose: 200.0 mg/kg/injection, schedule: Q04DX003 (ip), vehicle: saline with Tween-80
[7] = dose: 400.0 mg/kg/injection, schedule: Q04DX003 (ip), vehicle: saline with Tween-80
[8] = dose: 12.5 mg/kg/injection, schedule: Q01DX009 (ip), vehicle: saline with Tween-80
[9] = dose: 12.5 mg/kg/injection, schedule: Q01DX009 (ip), vehicle: saline
[10] = dose: 100.0 mg/kg/injection, schedule: Q01DX009 (ip), vehicle: saline
[11] = dose: 100.0 mg/kg/injection, schedule: Q04DX003 (ip), vehicle: saline
[12] = dose: 200.0 mg/kg/injection, schedule: Q01DX009 (ip), vehicle: saline
[13] = dose: 200.0 mg/kg/injection, schedule: Q04DX003 (ip), vehicle: saline
[14] = dose: 400.0 mg/kg/injection, schedule: Q01DX009 (ip), vehicle: saline
[15] = dose: 400.0 mg/kg/injection, schedule: Q04DX003 (ip), vehicle: saline
[16] = dose: 25.0 mg/kg/injection, schedule: Q01DX009 (ip), vehicle: saline with Tween-80
[17] = dose: 100.0 mg/kg/injection, schedule: Q01DX009 (ip), vehicle: saline with Tween-80
[18] = dose: 200.0 mg/kg/injection, schedule: Q01DX009 (ip), vehicle: saline with Tween-80
[19] = dose: 6.25 mg/kg/injection, schedule: Q01DX009 (ip), vehicle: saline
[20] = dose: 25.0 mg/kg/injection, schedule: Q01DX009 (ip), vehicle: saline

SMILES: COC(=O)C(CSCSCc1ccccc1)NC(=O)C(CSCc1ccccc1)NC(=O)CCNC(=O)OCc1ccccc1 (configuration not stated)
- T/C (dose: 1.56 mg/kg/injection, schedule: Q04DX003 (ip), vehicle: Klucel (hydroxypropylcellulose) (HPC)): 101 % of control
- T/C (dose: 3.13 mg/kg/injection, schedule: Q04DX003 (ip), vehicle: Klucel (hydroxypropylcellulose) (HPC)): 120 % of control
- T/C (dose: 12.5 mg/kg/injection, schedule: Q04DX003 (ip), vehicle: Klucel (hydroxypropylcellulose) (HPC)): 101 % of control
- T/C (dose: 25.0 mg/kg/injection, schedule: Q04DX003 (ip), vehicle: Klucel (hydroxypropylcellulose) (HPC)): 111 % of control

SMILES: CCCCCCCC(=O)Oc1c(Cl)c(Cl)c(C#N)c(Cl)c1C#N
- T/C [1]: 119 % of control

SMILES: CCCCCCCCCCC(C(=O)O)C1(C(=O)O)CCC(=O)O1 (configuration not stated)
- T/C [2]: 107 % of control
- T/C [3]: 107 % of control
- T/C (dose: 200.0 mg/kg/injection, schedule: Q01DX009 (ip), vehicle: Klucel (hydroxypropylcellulose) (HPC)): 98 % of control

SMILES: COc1ccc(/C=C/C(=O)c2ccc(OCc3ccccc3)c(OC)c2)cc1OC
- T/C [4]: 105 % of control
- T/C [5]: 99 % of control
- T/C [6]: 87 % of control
- T/C [7]: 87 % of control

SMILES: CO[C@@H]1[C@H](O)CC[C@]2(CO2)[C@H]1[C@@]1(C)O[C@@H]1CC=C(C)C
- T/C (dose: 3.13 mg/kg/injection, schedule: Q01DX009 (ip), vehicle: saline with Tween-80): 100 % of control
- T/C (dose: 6.25 mg/kg/injection, schedule: Q01DX009 (ip), vehicle: saline with Tween-80): 97 % of control
- T/C [8]: 106 % of control
- T/C [9]: 98 % of control
- T/C (dose: 37.5 mg/kg/injection, schedule: Q01DX009 (ip), vehicle: saline with Tween-80): 100 % of control

SMILES: O=S(=O)(O)C1(O)CCCCC1
- T/C [10]: 105 % of control
- T/C [5]: 95 % of control
- T/C [11]: 109 % of control
- T/C [12]: 100 % of control
- T/C [6]: 104 % of control
- T/C [13]: 104 % of control
- T/C [14]: 105 % of control
- T/C [7]: 100 % of control
- T/C [15]: 100 % of control

SMILES: C=C(C)CNc1ccccc1
- T/C [16]: 119 % of control
- T/C [1]: 123 % of control
- T/C [17]: 103 % of control and 123 % of control

SMILES: CCCCOP1(=O)N(C)CCN1C
- T/C (dose: 50.0 mg/kg/injection, schedule: Q01DX009 (ip), vehicle: saline): 102 % of control
- T/C [10]: 105 % of control
- T/C [12]: 102 % of control

SMILES: c1ccc2c(c1)Cc1c(NC3=NCCO3)cccc1-2
- T/C [4]: 95 % of control
- T/C [5]: 95 % of control
- T/C [6]: 108 % of control
- T/C [7]: 100 % of control

SMILES: CC(=O)Nc1ccc(S(=O)(=O)F)cc1[N+](=O)[O-]
- T/C (dose: 25.0 mg/kg/injection, schedule: Q04DX003 (ip), vehicle: saline): 100 % of control
- T/C (dose: 50.0 mg/kg/injection, schedule: Q04DX003 (ip), vehicle: saline): 100 % of control
- T/C [11]: 115 % of control

SMILES: NNC(=O)c1ccc(Br)cc1
- T/C [2]: 96 % of control
- T/C [3]: 92 % of control
- T/C (dose: 100.0 mg/kg/injection, schedule: Q04DX003 (ip), vehicle: Klucel (hydroxypropylcellulose) (HPC)): 95 % of control
- T/C (dose: 200.0 mg/kg/injection, schedule: Q04DX003 (ip), vehicle: Klucel (hydroxypropylcellulose) (HPC)): 91 % of control

SMILES: O=C1c2ccccc2C(=O)N1CCC[P+](c1ccccc1)(c1ccccc1)c1ccccc1
- T/C (dose: 1.56 mg/kg/injection, schedule: Q01DX009 (ip), vehicle: Klucel (hydroxypropylcellulose) (HPC)): 102 % of control
- T/C (dose: 12.5 mg/kg/injection, schedule: Q01DX009 (ip), vehicle: Klucel (hydroxypropylcellulose) (HPC)): 151 % of control

SMILES: c1ccc2c(c1)cc1c3nncn3ncn21
- T/C [1]: 90 % of control
- T/C [17]: 114 % of control

SMILES: Cc1ccc(C(=O)CO)cc1
- T/C [1]: 98 % of control
- T/C [17]: 102 % of control
- T/C [18]: 98 % of control

SMILES: SC1CC[N-]CC1.SC1CC[N-]CC1.[Cl][Pt+2][Cl]
- T/C (dose: 50.0 mg/kg/injection, schedule: Q01DX009 (ip), vehicle: water): 107 % of control
- T/C (dose: 100.0 mg/kg/injection, schedule: Q01DX009 (ip), vehicle: water): 91 % of control
- T/C (dose: 100.0 mg/kg/injection, schedule: Q04DX003 (ip), vehicle: water): 98 % of control
- T/C (dose: 200.0 mg/kg/injection, schedule: Q04DX003 (ip), vehicle: water): 98 % of control
- T/C (dose: 400.0 mg/kg/injection, schedule: Q04DX003 (ip), vehicle: water): 96 % of control

SMILES: CCCCCCC(=O)/C=C/c1ccc(Cl)cc1
- T/C [17]: 90 % of control
- T/C [18]: 91 % of control
- T/C (dose: 400.0 mg/kg/injection, schedule: Q01DX009 (ip), vehicle: saline with Tween-80): 100 % of control

SMILES: CCCCCCCCCCCCOCCCCCCCCCCCC
- T/C (dose: 100.0 mg/kg/injection, schedule: Q01DX009 (sc), vehicle: olive oil, sesame oil, peanut oil): 100 % of control
- T/C (dose: 100.0 mg/kg/injection, schedule: Q04DX003 (sc), vehicle: olive oil, sesame oil, peanut oil): 109 % of control
- T/C (dose: 200.0 mg/kg/injection, schedule: Q01DX009 (sc), vehicle: olive oil, sesame oil, peanut oil): 100 % of control
- T/C (dose: 200.0 mg/kg/injection, schedule: Q04DX003 (sc), vehicle: olive oil, sesame oil, peanut oil): 100 % of control
- T/C (dose: 400.0 mg/kg/injection, schedule: Q01DX009 (sc), vehicle: olive oil, sesame oil, peanut oil): 95 % of control
- T/C (dose: 400.0 mg/kg/injection, schedule: Q04DX003 (sc), vehicle: olive oil, sesame oil, peanut oil): 100 % of control

SMILES: CCNC(C)(C)C(S)c1ccc(Cl)s1 (configuration not stated)
- T/C [8]: 93 % of control
- T/C [16]: 93 % of control
- T/C (dose: 25.0 mg/kg/injection, schedule: Q04DX003 (ip), vehicle: saline with Tween-80): 101 % of control
- T/C [1]: 91 % of control and 104 % of control
- T/C [4]: 91 % of control
- T/C (dose: 75.0 mg/kg/injection, schedule: Q04DX003 (ip), vehicle: saline with Tween-80): 108 % of control
- T/C [17]: 94 % of control and 109 % of control
- T/C [5]: 114 % of control
- T/C [6]: 116 % of control

SMILES: C[N+]1=C2CCCCC2=C(N)CC1
- T/C [19]: 110 % of control
- T/C (dose: 6.25 mg/kg/injection, schedule: Q04DX003 (ip), vehicle: saline sonified): 100 % of control
- T/C [9]: 100 % of control
- T/C (dose: 12.5 mg/kg/injection, schedule: Q04DX003 (ip), vehicle: saline sonified): 100 % of control
- T/C [20]: 110 % of control
- T/C (dose: 25.0 mg/kg/injection, schedule: Q04DX003 (ip), vehicle: saline sonified): 100 % of control

SMILES: O=C(O)c1cc(C(Cl)(Cl)Cl)ccc1C(Cl)(Cl)Cl
- T/C (dose: 100.0 mg/kg/injection, schedule: Q04DX003 (ip), vehicle: saline sonified): 95 % of control
- T/C (dose: 400.0 mg/kg/injection, schedule: Q04DX003 (ip), vehicle: saline sonified): 104 % of control

SMILES: NC(=S)c1ncc(N)s1
- T/C [16]: 89 % of control
- T/C [1]: 98 % of control
- T/C [17]: 106 % of control

SMILES: NC(=O)n1nccc1N
- T/C [10]: 100 % of control
- T/C [11]: 105 % of control
- T/C [12]: 100 % of control
- T/C [13]: 115 % of control
- T/C [14]: 90 % of control
- T/C [15]: 110 % of control

SMILES: NC(N)=N/N=C\c1c2ccccc2cc2ccccc12
- T/C (dose: 3.13 mg/kg/injection, schedule: Q01DX009 (ip), vehicle: other): 155 % of control
- T/C (dose: 6.25 mg/kg/injection, schedule: Q01DX009 (ip), vehicle: other): 155 % of control
- T/C (dose: 12.5 mg/kg/injection, schedule: Q01DX009 (ip), vehicle: other): 157 % of control

SMILES: Cc1ccnc(=O)[nH]1
- T/C (dose: 3.13 mg/kg/injection, schedule: Q01DX009 (ip), vehicle: saline): 103 % of control
- T/C [19]: 115 % of control
- T/C [9]: 99 % of control
- T/C [20]: 105 % of control
